Experimental data taken from patent US20100063273A1, “NOVEL CRYSTAL OF PIPERACILLIN SODIUM” (Toyama Chemical Co., Ltd, priority 2007, published 2010).

What was measured:
Assay type in all cases: physicochemical
[1] = Purity stability test (storage at 60° C.); conditions: for Purity stability: 60° C. storage, result in words
Procedure: (§1) As test substances, the V type crystal (Example 1), the VI type crystal (Example 2) and the amorphous body (Comparative example 1) were used.
Test substance 2.2 g was put in a C2 vial made by Daiichi Glass Co., Ltd., and after the vial was filled with nitrogen gas, the vial was stored at 60° C. After the initiation of the test, the purity of each test substances was measured by high-performance liquid chromatographic method at 1 week, 2 weeks and 4 weeks later (a notice of the 340th Apr. 4, 2001 by Ministry of Health and Welfare medicinal safe directors of bureaus).

[2] = Light exposure stability test; conditions: D65 lamp, 25° C., 1.20 million lx·hr
[3] = Dissolution test; conditions: for Dissolution time: 2.2 g in injectable water 10 mL, shaken, complete dissolution by unaided eye, mean of three, sodium monohydrate; for Dissolution compared with the amorphous body: result in words
Procedure: as §1
Test substance 2.2 g was put in a C2 vial made by Daiichi Glass Co., Ltd., injectable water 10 mL was added to the vial, the vial was fixed laterally and was shaken by MRK incubator-shaker (4 cm of shaking width, 48 times/minute of shaking rate).
Complete dissolution was judged by an unaided eye, and the length of time to need for the complete dissolution was measured.
The test was carried out at three times respectively, and those mean values were assumed to the dissolution time.

[4] = Light exposure stability test; conditions: for By-product I / Piperacillin / Total amount of relative substances: Initiation of test
Procedure: As test substances, the VI type crystal (Example 2) and the amorphous body (Comparative example 1) were used.
Test substance 2.2 g was put in a C2 vial made by Daiichi Glass Co., Ltd., and after the vial was filled with nitrogen gas, the vial was radiated ([…] 1×/hr) with D65 lamp (FLR20S-D-EDL-D65/M) at 25° C.
After the initiation of the test and the radiation of […] 1×/hr, the purity of each test substances was measured by high-performance liquid chromatographic method (a notice of the 340th Apr. 4, 2001 by Ministry of Health and Welfare medicinal safe directors of bureaus).

[5] = Coloration stability test (storage at 60° C.); conditions: for Coloration stability of exterior appearance: 60° C. storage, result in words
Procedure: as §1
Test substance 2.2 g was put in a C2 vial made by Daiichi Glass Co., Ltd., and after the vial was filled with nitrogen gas, the vial was stored at 60° C. After the initiation of the test, the color difference (ΔE), degree of whiteness (W) and yellowness (YI) of each test substances were measured by a color-difference meter at 1 week, 2 weeks and 4 weeks later.

[6] = Hygroscopic test; conditions: for Ratio of change of weight: 25° C., three days; for Hygroscopic (moisture absorption) stability compared with the amorphous body: result in words
Procedure: as §1
Test substances were allowed to stand at 25° C. for three days under 7, 11, 22, 33 and 57% relative humidity, the content of moisture was measured according to Japanese pharmacopoeia, general tests, water determination method (Karl Fischer's method) and the changes of weight were calculated.

[7] = 60° C., 1 week, nitrogen-filled vial, sodium monohydrate
[8] = 60° C., 2 weeks, nitrogen-filled vial, sodium monohydrate
[9] = 60° C., 4 weeks, nitrogen-filled vial, sodium monohydrate
[10] = Initiation of test, sodium monohydrate
[11] = 60° C., 1 week, sodium monohydrate
[12] = 60° C., 2 weeks, sodium monohydrate
[13] = 60° C., 4 weeks, sodium monohydrate
[14] = 7% relative humidity, sodium monohydrate
[15] = 11% relative humidity, sodium monohydrate
[16] = 22% relative humidity, sodium monohydrate
[17] = 33% relative humidity, sodium monohydrate
[18] = 57% relative humidity, sodium monohydrate
[19] = 60° C., 1 week, nitrogen-filled vial
[20] = 60° C., 2 weeks, nitrogen-filled vial
[21] = 60° C., 4 weeks, nitrogen-filled vial

**Q.** With `CCN1CCN(C(=O)N[C@@H](C(=O)N[C@@H]2C(=O)N3[C@@H]2SC(C)(C)[C@@H]3C(=O)O)c2ccccc2)C(=O)C1=O` [Example 2, piperacillin sodium monohydrate] as the compound, how does the Purity stability [1] read?
**A.** stable

**Q.** And the “By-product I” value [1, 7]?
**A.** 0.07

**Q.** And the “Decomposition product I” value [1, 7]?
**A.** 0.01

**Q.** What about the Piperacillin [1, 7] of the same compound?
**A.** 99.82

**Q.** What about the “By-product I” value [1, 8] of the same compound?
**A.** 0.11

**Q.** And the “Decomposition product I” value [1, 8]?
**A.** 0.02

**Q.** What about the Piperacillin [1, 8] of the same compound?
**A.** 99.75

**Q.** What about the “By-product I” value [1, 9] of the same compound?
**A.** 0.11

**Q.** What about the “Decomposition product I” value [1, 9] of the same compound?
**A.** 0.04

**Q.** And the Piperacillin [1, 9]?
**A.** 99.73

**Q.** What about the “Decomposition product I” value ([1]; Initiation of test) of the same compound?
**A.** Not detected

**Q.** And the “By-product I” value [1, 10]?
**A.** 0.02

**Q.** What about the Piperacillin [1, 10] of the same compound?
**A.** 99.94

**Q.** What about the “By-product I” value [2] of the same compound?
**A.** 0.14

**Q.** What about the Piperacillin [2] of the same compound?
**A.** 99.73

**Q.** What about the “Total amount of relative substances” value [2] of the same compound?
**A.** 0.27

**Q.** And the Dissolution time [3]?
**A.** 50 s

**Q.** What about the “Dissolution compared with the amorphous body” value [3] of the same compound?
**A.** dissolved in a short period of time than the amorphous body

**Q.** And the “By-product I” value [4]?
**A.** 0.15

**Q.** What about the Piperacillin [4] of the same compound?
**A.** 99.81

**Q.** And the “Total amount of relative substances” value [4]?
**A.** 0.19

**Q.** And the Light exposure stability ([4]; result in words)?
**A.** stable

**Q.** What about the “Coloration stability of exterior appearance” value [5] of the same compound?
**A.** stable

**Q.** And the “Color difference (ΔE)” value [5, 11]?
**A.** 0.39

**Q.** What about the “Degree of whiteness (W)” value [5, 11] of the same compound?
**A.** 95.64

**Q.** And the “Degree of yellowness (YI)” value [5, 11]?
**A.** 1.35

**Q.** What about the “Color difference (ΔE)” value [5, 12] of the same compound?
**A.** 0.54

**Q.** What about the “Degree of whiteness (W)” value [5, 12] of the same compound?
**A.** 95.60

**Q.** What about the “Degree of yellowness (YI)” value [5, 12] of the same compound?
**A.** 1.64

**Q.** And the “Color difference (ΔE)” value [5, 13]?
**A.** 0.79

**Q.** And the “Degree of whiteness (W)” value [5, 13]?
**A.** 95.57

**Q.** What about the “Degree of yellowness (YI)” value [5, 13] of the same compound?
**A.** 2.02

**Q.** And the “Degree of whiteness (W)” value [5, 10]?
**A.** 95.94

**Q.** What about the “Degree of yellowness (YI)” value [5, 10] of the same compound?
**A.** 0.85

**Q.** And the “Ratio of change of weight” value [6, 14]?
**A.** 1.16 w/w %

**Q.** And the “Ratio of change of weight” value [6, 15]?
**A.** 1.54 w/w %

**Q.** What about the “Ratio of change of weight” value [6, 16] of the same compound?
**A.** 3.14 w/w %

**Q.** And the “Ratio of change of weight” value [6, 17]?
**A.** 3.98 w/w %

**Q.** What about the “Ratio of change of weight” value [6, 18] of the same compound?
**A.** 5.28 w/w %

**Q.** And the “Hygroscopic (moisture absorption) stability compared with the amorphous body” value ([6]; listed as VI type crystal, sodium monohydrate)?
**A.** superior in the moisture absorption stability to the amorphous body

**Q.** Which results are given for `CCN1CCN(C(=O)N[C@@H](C(=O)N[C@@H]2C(=O)N3[C@@H]2SC(C)(C)[C@@H]3C(=O)[O-])c2ccccc2)C(=O)C1=O.[Na+]` [Comparative example 1, piperacillin sodium]?
**A.** By-product I [1, 19]: 0.80; Decomposition product I [1, 19]: 0.13; Piperacillin [1, 19]: 98.27; By-product I [1, 20]: 0.97; Decomposition product I [1, 20]: 0.17; Piperacillin [1, 20]: 98.05; By-product I [1, 21]: 1.21; Decomposition product I [1, 21]: 0.30; Piperacillin [1, 21]: 97.04; By-product I ([1]; Initiation of test): 0.22; Decomposition product I ([1]; Initiation of test): 0.01; Piperacillin ([1]; Initiation of test): 99.51; By-product I [2]: 0.31; Piperacillin [2]: 98.86; Total amount of relative substances [2]: 1.14; By-product I [4]: 0.23; Piperacillin [4]: 99.10; Total amount of relative substances [4]: 0.90; Color difference (ΔE) ([5]; 60° C., 1 week): 2.76; Degree of whiteness (W) ([5]; 60° C., 1 week): 94.66; Degree of yellowness (YI) ([5]; 60° C., 1 week): 6.51; Color difference (ΔE) ([5]; 60° C., 2 weeks): 4.27; Degree of whiteness (W) ([5]; 60° C., 2 weeks): 93.29; Degree of yellowness (YI) ([5]; 60° C., 2 weeks): 8.97; Color difference (ΔE) ([5]; 60° C., 4 weeks): 5.73; Degree of whiteness (W) ([5]; 60° C., 4 weeks): 91.87; Degree of yellowness (YI) ([5]; 60° C., 4 weeks): 11.25; Degree of whiteness (W) ([5]; Initiation of test): 96.86; Degree of yellowness (YI) ([5]; Initiation of test): 2.17; Ratio of change of weight ([6]; 7% relative humidity): 2.20 w/w %; Ratio of change of weight ([6]; 11% relative humidity): 3.12 w/w %; Ratio of change of weight ([6]; 22% relative humidity): 4.99 w/w %; Ratio of change of weight ([6]; 33% relative humidity): 6.78 w/w %; Ratio of change of weight ([6]; 57% relative humidity): 11.03 w/w %

**Q.** Which results are given for `CCN1CCN(C(=O)N[C@@H](C(=O)N[C@@H]2C(=O)N3[C@@H]2SC(C)(C)[C@@H]3C(=O)O)c2ccccc2)C(=O)C1=O` [III type crystal, piperacillin sodium monohydrate]?
**A.** Dissolution compared with the amorphous body [3]: dissolved in a short period of time than the amorphous body; Hygroscopic (moisture absorption) stability compared with the amorphous body ([6]; sodium monohydrate): superior in hygroscopic stability to the amorphous body

**Q.** For `CCN1CCN(C(=O)N[C@@H](C(=O)N[C@@H]2C(=O)N3[C@@H]2SC(C)(C)[C@@H]3C(=O)O)c2ccccc2)C(=O)C1=O` [Example 1, piperacillin sodium monohydrate], which Purity stability [1] is on record?
**A.** stable

**Q.** What about the “By-product I” value [1, 7] of the same compound?
**A.** 0.21

**Q.** What about the “Decomposition product I” value [1, 7] of the same compound?
**A.** 0.03

**Q.** And the Piperacillin [1, 7]?
**A.** 99.66

**Q.** And the “By-product I” value [1, 8]?
**A.** 0.33

**Q.** What about the “Decomposition product I” value [1, 8] of the same compound?
**A.** 0.08

**Q.** What about the Piperacillin [1, 8] of the same compound?
**A.** 99.37

**Q.** And the “By-product I” value [1, 9]?
**A.** 0.59

**Q.** And the “Decomposition product I” value [1, 9]?
**A.** 0.26

**Q.** And the Piperacillin [1, 9]?
**A.** 98.62

**Q.** What about the “Decomposition product I” value ([1]; Initiation of test) of the same compound?
**A.** Not detected

**Q.** And the “By-product I” value [1, 10]?
**A.** 0.04

**Q.** What about the Piperacillin [1, 10] of the same compound?
**A.** 99.92

**Q.** And the Dissolution time [3]?
**A.** 43 s

**Q.** What about the “Dissolution compared with the amorphous body” value [3] of the same compound?
**A.** dissolved in a short period of time than the amorphous body

**Q.** And the “Coloration stability of exterior appearance” value [5]?
**A.** stable

**Q.** What about the “Color difference (ΔE)” value [5, 11] of the same compound?
**A.** 0.60

**Q.** What about the “Degree of whiteness (W)” value [5, 11] of the same compound?
**A.** 96.64

**Q.** And the “Degree of yellowness (YI)” value [5, 11]?
**A.** 1.77

**Q.** What about the “Color difference (ΔE)” value [5, 12] of the same compound?
**A.** 0.69

**Q.** And the “Degree of whiteness (W)” value [5, 12]?
**A.** 96.55

**Q.** What about the “Degree of yellowness (YI)” value [5, 12] of the same compound?
**A.** 1.96

**Q.** What about the “Color difference (ΔE)” value [5, 13] of the same compound?
**A.** 1.33

**Q.** And the “Degree of whiteness (W)” value [5, 13]?
**A.** 96.20

**Q.** And the “Degree of yellowness (YI)” value [5, 13]?
**A.** 3.03

**Q.** And the “Degree of whiteness (W)” value [5, 10]?
**A.** 96.45

**Q.** What about the “Degree of yellowness (YI)” value [5, 10] of the same compound?
**A.** 0.94

**Q.** And the “Ratio of change of weight” value [6, 14]?
**A.** 0 w/w %

**Q.** And the “Ratio of change of weight” value [6, 15]?
**A.** 0.93 w/w %

**Q.** What about the “Ratio of change of weight” value [6, 16] of the same compound?
**A.** 3.18 w/w %

**Q.** What about the “Ratio of change of weight” value [6, 17] of the same compound?
**A.** 4.77 w/w %

**Q.** What about the “Ratio of change of weight” value [6, 18] of the same compound?
**A.** 8.43 w/w %

**Q.** What about the “Hygroscopic (moisture absorption) stability compared with the amorphous body” value ([6]; listed as V type crystal, sodium monohydrate) of the same compound?
**A.** superior in the moisture absorption stability to the amorphous body
